# EP4790063A1, “PEPTIDE HAVING ACTIVITY FOR […] OF MARINE FOULING” (National University Corporation Hokkaido University, priority 2023, dated 2025)
# Read-outs that look alike come from different tables or passages of the source. Non-standard residues stand in square brackets, D forms with d. Residues, ends and D or L forms follow the SMILES beside them. ξ: configuration not given here. *: point of attachment. ξβ3hL = CC(C)CC(N)CC(=O)O; Boc = CC(C)(C)OC(=O)*; ξβ3hA = CC(N)CC(=O)O; OBn = c1ccc(CO*)cc1; GABA = NCCCC(=O)O; βAla = NCCC(=O)O
# Legend:
# [1] = test system: cypris larvae of Striped Barnacle; assay: Evaluation of antifouling activities and toxicity against the cypris larvae of Striped Barnacle (24-well plate, adhesion and mortality after 48 h); type: in vivo, Amphibalanus amphitrite
# Description: After solutions of about 2 mL of the test compounds (tripeptides 2 to 10 and dipeptide 11) in ethanol were dispensed into each well of the 24-well polystyrene multi-well plate (3.2 mL/well, well diameter 15.5 mm, well height 17.6 mm, manufactured by Corning), the multi-well plate was air-dried to evaporate the ethanol.
# The test compounds were aliquoted to achieve final concentrations of 0.03, 0.1, 0.3, 1, 3, and 10 µg/mL.
# Subsequently, six individuals of the cypris larvae of Striped Barnacle (hereinafter simply referred to as "barnacle larvae") were transplanted into each well along with 2 mL of pre-filtered natural seawater. The multi-well plate was left standing in an incubator at 25°C, and the barnacle larvae were allowed to grow for two days at 25°C.
# In the above procedure, a test for the control group was conducted by dispensing an ethanol solution without any test compound. The natural seawater used in the above test was prepared by diluting the natural seawater collected from the coastal area near Onjuku, Chiba Prefecture (salt concentration: 36 g/kg) with distilled water to adjust a salt concentration of 32 g/kg.
# In the test group, the control group, and the comparison group, the tests were conducted in four times (four wells) for one concentration of each test compounds.
# Forty-eight hours after the test started, the number of adhered individuals and the number of dead individuals of the barnacle larvae in each well were counted under a stereomicroscope. The adhesion rate (%) and mortality rate (%) of the barnacle larvae in each well were calculated, respectively. […] Similarly, for each test compound, a dose-mortality response curve was created to determine the half-maximal lethal concentration (48h LC50) that causes 50% mortality in the barnacle larvae. As a reference, the value of Boc-3 obtained from non-Patent literature 8 is also described.
# In particular, the lower the settlement rate, the stronger the antifouling effect.
# [2] = test system: juvenile shellfish of Mediterranean mussel; assay: Evaluation of the antifouling activity and toxicity against the juvenile shellfish of Mediterranean mussel (coated glass beaker, 3 days); type: in vivo, Mytilus galloprovincialis; conditions: for bottom surface-adhered individuals % / bottom surface-crawling individuals % / overturned individuals or closed shell individuals (unadhered) % / wall surface-adhered individuals % / number of byssal threads on the bottom surface / bottom surface-adhered individuals No. / bottom surface-crawling individuals No. / overturned individuals or closed shell individuals (unadhered) No. / wall surface-adhered individuals No.: three days; for bottom surface-adhered individuals No. / bottom surface-crawling individuals No. / overturned individuals or closed shell individuals (unadhered) No. / wall surface-adhered individuals No.: twelve individuals; for antifouling effect (overall determination in words): juvenile Mediterranean mussel, 3.0 µg/mL and 10 µg/mL
# Description: The sample was dissolved in ethanol to adjust to a concentration of 1 mg/mL. Thirty and 100 µL (30 and 100 µg) of the sample solutions were mixed with the solvent, and the mixtures were brought to a total volume of 500 µL. These mixtures were spread on the bottom surface of the glass beaker of the test container, and the solvent was volatilized by shaking them overnight. As a result, the samples to be evaluated were coated only on the bottom surface of the glass beaker.
# A volume of 10 mL of the test seawater was added to the glass beakers of the test containers. The tests were initiated by introducing twelve test individuals into the test seawater in each beaker. The tests ended after three days, and the observation was conducted.
# In Table 2, the terms "bottom surface-adhered individuals" and "wall surface-adhered individuals" refer to individuals that are adhered to the bottom surface and wall surface of the beaker, respectively; the term "bottom surface-crawling individuals" refers to individuals that move along the bottom surface without adhering; the term "overturned individuals or closed shell individuals (unadhered)" refers to individuals that are either overturned or in a closed shell without adhering to the bottom surface; and the term "number of byssal threads on the bottom surface" refers to the number of foot threads that are fixed to the bottom surface. In particular, the greater the reduction in the number of byssal threads, the stronger the effect of adhesion prevention.
# [3] = test system: cypris larvae of Striped Barnacle; conditions: Reference value, see Table 1 in non-Patent literature 8; cited from earlier work
# [4] = Table 4 summary of results from Test Examples 1 to 3 (rounded)
# [5] = Test Example 1, concentration causing 50% mortality in barnacle larvae, 48 h, 25°C, tested 0.03-10 µg/mL
# [6] = Test Example 1, concentration that prevents adhesion of barnacle larvae by 50%, 48 h, 25°C, tested 0.03-10 µg/mL
# [7] = Test Example 3, same manner as Test Example 1
# [8] = 3 µg/mL (30 µg), control group 118
smiles,measurement,setting,value
CCOC(=O)CCNC(=O)[C@@H]1CCCN1C(=O)[C@H](Cc1ccccc1)NC(=O)OC(C)(C)C [tripeptide 4] (Boc-Phe-Pro-[βAla]-OEt),Antifouling activity 48h EC50,[1]; [4],>10 µg/mL
same,Toxicity 48h LC50,[1]; [5],>10 µg/mL
same,Antifouling activity 48h EC50,[1]; [6],>10 µg/mL
"CC(C)(C)OC(=O)N1CCC[C@H]1C(=O)Nc1ccccc1C(=O)OCc1ccccc1 [dipeptide 13, reference compound]",Antifouling activity 48h EC50,[1]; [4],0.8 µg/mL
same,Antifouling activity 48h EC50,[1]; [7],0.84 µg/mL
same,Toxicity 48h LC50,[1]; [7],>10 µg/mL
CC(C)CC(CC(=O)OCc1ccccc1)NC(=O)[C@@H]1CCCN1C(=O)[C@H](Cc1ccccc1)NC(=O)OC(C)(C)C (stereo partly drawn) [tripeptide 8] (Boc-Phe-Pro-[ξβ3hL]-OBn),Antifouling activity 48h EC50,[1]; [4],1.1 µg/mL
same,Toxicity 48h LC50,[1]; [5],>10 µg/mL
same,Antifouling activity 48h EC50,[1]; [6],1.13 µg/mL
same,antifouling activity (in words),"[1]; cypris larvae of Striped Barnacle, within the tested concentration range",effective
same,bottom surface-adhered individuals %,[2]; 3 µg/mL (30 µg),16.7%
same,bottom surface-crawling individuals %,[2]; 3 µg/mL (30 µg),0.0%
same,overturned individuals or closed shell individuals (unadhered) %,[2]; 3 µg/mL (30 µg),58.3%
same,wall surface-adhered individuals %,[2]; 3 µg/mL (30 µg),25.0%
same,number of byssal threads on the bottom surface,[2]; [8],25
same,bottom surface-adhered individuals No.,[2]; 3 µg/mL (30 µg),2
same,bottom surface-crawling individuals No.,[2]; 3 µg/mL (30 µg),0
same,overturned individuals or closed shell individuals (unadhered) No.,[2]; 3 µg/mL (30 µg),7
same,wall surface-adhered individuals No.,[2]; 3 µg/mL (30 µg),3
same,bottom surface-adhered individuals %,[2]; 10 µg/mL (100 µg),16.7%
same,bottom surface-crawling individuals %,[2]; 10 µg/mL (100 µg),0.0%
same,number of byssal threads on the bottom surface,[2]; 10 µg/mL (100 µg),12
same,overturned individuals or closed shell individuals (unadhered) %,[2]; 10 µg/mL (100 µg),83.3%
same,wall surface-adhered individuals %,[2]; 10 µg/mL (100 µg),0.0%
same,bottom surface-adhered individuals No.,[2]; 10 µg/mL (100 µg),2
same,bottom surface-crawling individuals No.,[2]; 10 µg/mL (100 µg),0
same,overturned individuals or closed shell individuals (unadhered) No.,[2]; 10 µg/mL (100 µg),10
same,wall surface-adhered individuals No.,[2]; 10 µg/mL (100 µg),0
same,antifouling effect (overall determination in words),[2],exhibit an antifouling effect
same,antifouling effect (overall determination in words),[2]; listed as compound 8,effective
CC(CC(=O)OCc1ccccc1)NC(=O)[C@@H]1CCCN1C(=O)[C@H](Cc1ccccc1)NC(=O)OC(C)(C)C (stereo partly drawn) [tripeptide 9] (Boc-Phe-Pro-[ξβ3hA]-OBn),bottom surface-adhered individuals %,[2]; 3 µg/mL (30 µg),75.0%
same,bottom surface-crawling individuals %,[2]; 3 µg/mL (30 µg),0.0%
same,overturned individuals or closed shell individuals (unadhered) %,[2]; 3 µg/mL (30 µg),16.7%
same,wall surface-adhered individuals %,[2]; 3 µg/mL (30 µg),8.3%
same,number of byssal threads on the bottom surface,[2]; [8],73
same,bottom surface-adhered individuals No.,[2]; 3 µg/mL (30 µg),9
same,bottom surface-crawling individuals No.,[2]; 3 µg/mL (30 µg),0
same,overturned individuals or closed shell individuals (unadhered) No.,[2]; 3 µg/mL (30 µg),2
same,wall surface-adhered individuals No.,[2]; 3 µg/mL (30 µg),1
same,bottom surface-adhered individuals %,[2]; 10 µg/mL (100 µg),58.3%
same,bottom surface-crawling individuals %,[2]; 10 µg/mL (100 µg),0.0%
same,number of byssal threads on the bottom surface,[2]; 10 µg/mL (100 µg),34
same,overturned individuals or closed shell individuals (unadhered) %,[2]; 10 µg/mL (100 µg),33.3%
same,wall surface-adhered individuals %,[2]; 10 µg/mL (100 µg),8.3%
same,bottom surface-adhered individuals No.,[2]; 10 µg/mL (100 µg),7
same,bottom surface-crawling individuals No.,[2]; 10 µg/mL (100 µg),0
same,overturned individuals or closed shell individuals (unadhered) No.,[2]; 10 µg/mL (100 µg),4
same,wall surface-adhered individuals No.,[2]; 10 µg/mL (100 µg),1
same,antifouling effect (overall determination in words),[2],effective
CC(C)[C@@H](NC(=O)[C@@H]1CCCN1C(=O)[C@@H](NC(=O)OC(C)(C)C)[C@H](C)Cc1ccccc1)[C@@H](C)C(=O)OCc1ccccc1 [Boc-3],Toxicity 48h LC50,[3],>10 µg/mL
CCOC(=O)[C@H](CC(C)C)NC(=O)[C@@H]1CCCN1C(=O)[C@H](Cc1ccccc1)NC(=O)OC(C)(C)C [tripeptide 3] (Boc-Phe-Pro-Leu-OEt),Antifouling activity 48h EC50,[1]; [4],>10 µg/mL
CC(C)C(NC(=O)[C@@H]1CCCN1C(=O)[C@H](Cc1ccccc1)NC(=O)OC(C)(C)C)C(C)C(=O)O (stereo partly drawn) [tripeptide 7],Antifouling activity 48h EC50,[1]; [4],>10 µg/mL
same,Toxicity 48h LC50,[1]; [5],>10 µg/mL
same,Antifouling activity 48h EC50,[1]; [6],>10 µg/mL
CCOC(=O)CCCNC(=O)[C@@H]1CCCN1C(=O)[C@H](Cc1ccccc1)NC(=O)OC(C)(C)C [tripeptide 5] (Boc-Phe-Pro-[GABA]-OEt),Antifouling activity 48h EC50,[1]; [4],>10 µg/mL
same,Toxicity 48h LC50,[1]; [5],>10 µg/mL
same,Antifouling activity 48h EC50,[1]; [6],>10 µg/mL
